In patent US20230114728A1 (Venatorx Pharmaceuticals, Inc., priority 2019, published 2023):
Values after ≈ are worked out from the molar mass of the structure shown.

Columns and labels:
[1] = target: T1, P. aeruginosa PBP3 (Pseudomonas aeruginosa, UniProt G3XD46); test: Bocillin-FL fluorescence polarization competition binding assay, P. aeruginosa PBP3; settings: fluorescence polarization competition binding assay using Bocillin-FL
T1 construct: made in house
In short: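 Binding of boronic acid inhibitors to purified Pseudomonas aeruginosa (PA01) PBP3 was measured by fluorescence polarization competition with Bocillin-FL, a fluorescent penicillin V. Reactions of 80 μl contained 0.75 μM PBP3 and 0.1 μM Bocillin-FL in 50 mM Hepes (pH 8.0), 300 mM NaCl and 5% (v/v) glycerol, in black 384-well plates. FP (Excitation 490 nm, Emission 520 nm) was read for up to 60 minutes. EC50 is the concentration that halves PBP-bound Bocillin-FL.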

[2] = tested on: N. gonorrhoeae WHO L; test: Liquid broth MIC in Fastidious broth; assay type: cell-based; settings: Neisseria gonorrhoeae; N. gonorrhoeae strain WHO L; Fastidious broth; read-out: Minimum Inhibitory Concentration, N. gonorrhoeae WHO L
In short: (§1)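 Colonies were swabbed from chocolate agar after 24 h growth and standardised by optical density at 600 nm. Compounds were serially diluted twofold in Fastidious broth, and bacteria added to give 5×10^5 CFU/mL. After about 24 h at 36 °C in 5% CO2, the lowest concentration allowing under 10% growth was taken as MIC.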

[3] = tested on: N. gonorrhoeae WHO G; test: Liquid broth MIC in Fastidious broth; assay type: cell-based; settings: Neisseria gonorrhoeae; N. gonorrhoeae strain WHO G; Fastidious broth; read-out: Minimum Inhibitory Concentration, N. gonorrhoeae WHO G
In short: as §1

[4] = tested on: N. gonorrhoeae H041; test: Liquid broth MIC in Fastidious broth; assay type: cell-based; settings: Neisseria gonorrhoeae, H041, read-out: Minimum Inhibitory Concentration, N. gonorrhoeae H041
In short: (§2)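 Broth microdilution against gonococcal strains expressing mosaic PBP2, starting inoculum 5×10^5 CFU/mL in Fastidious broth. Incubation runs ~24 h at 36 °C under 5% CO2, with MIC scored visually at <10% of full growth.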

[5] = tested on: N. gonorrhoeae WHO K; test: Liquid broth MIC in Fastidious broth; assay type: cell-based; settings: Neisseria gonorrhoeae, read-out: Minimum Inhibitory Concentration, N. gonorrhoeae WHO K
In short: as §2

[6] = tested on: N. gonorrhoeae ATCC 49226; test: Liquid broth MIC in Fastidious broth; assay type: cell-based; settings: Neisseria gonorrhoeae, ATCC49226; N. gonorrhoeae strain ATCC 49226; Fastidious broth; read-out: Minimum Inhibitory Concentration, N. gonorrhoeae ATCC 49226
In short: as §1

[7] = tested on: N. gonorrhoeae FA1090; test: Liquid broth MIC in Fastidious broth; assay type: cell-based; settings: Neisseria gonorrhoeae; N. gonorrhoeae strain FA1090; Fastidious broth; read-out: Minimum Inhibitory Concentration, N. gonorrhoeae FA1090
In short: as §1

T1 sequence (G3XD46 whole entry): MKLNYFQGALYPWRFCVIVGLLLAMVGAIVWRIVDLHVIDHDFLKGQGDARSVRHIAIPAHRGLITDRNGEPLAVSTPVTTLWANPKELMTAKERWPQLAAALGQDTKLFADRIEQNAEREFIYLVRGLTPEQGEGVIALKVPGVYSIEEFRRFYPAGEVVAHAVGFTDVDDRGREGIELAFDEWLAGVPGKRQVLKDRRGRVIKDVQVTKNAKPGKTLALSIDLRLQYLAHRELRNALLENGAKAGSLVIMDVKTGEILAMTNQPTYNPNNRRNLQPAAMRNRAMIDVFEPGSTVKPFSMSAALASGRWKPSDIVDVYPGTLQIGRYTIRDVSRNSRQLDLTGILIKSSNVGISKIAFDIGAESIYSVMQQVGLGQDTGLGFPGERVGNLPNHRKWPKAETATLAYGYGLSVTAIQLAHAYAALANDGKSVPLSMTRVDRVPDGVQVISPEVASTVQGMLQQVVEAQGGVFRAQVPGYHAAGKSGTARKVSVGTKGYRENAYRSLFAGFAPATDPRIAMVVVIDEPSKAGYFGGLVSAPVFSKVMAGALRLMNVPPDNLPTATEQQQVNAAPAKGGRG

SMILES	P. aeruginosa PBP3 Potency [1]	MIC [2] [µg/mL]	MIC [3] [µg/mL]	MIC [4] [µg/mL]	MIC [5] [µg/mL]	MIC [6] [µg/mL]	MIC [7] [µg/mL]
CCN1CCN(C(=O)NC(C(=O)N[C@H]2Cc3ccc(C=O)c(C(=O)O)c3OB2O)c2csc(N)n2)C(=O)C1=O (stereo partly drawn) [Example 57, (3R)-3-(2-(2-aminothiazol-4-yl)-2-(4-ethyl-2,3-dioxopiperazine-1-carboxamido)acetamido)-7-formyl-2-hydroxy-3,4-dihydro-2H-benzo[e][1,2]oxaborinine-8-carboxylic acid]	C (C represents a potency between 10 and 30 μM)	> 64	16 to 32 (≈ 28.7 to 57.3 µM)	> 64	> 64	16 to 32 (≈ 28.7 to 57.3 µM)	4 to 8 (≈ 7.16 to 14.3 µM)
CCN1CCN(C(=O)NC(C(=O)N[C@H]2Cc3ccc(CO)c(C(=O)O)c3OB2O)c2csc(N)n2)C(O)C1=O (stereo partly drawn) [Example 58, (3R)-3-(2-(2-aminothiazol-4-yl)-2-(4-ethyl-2-hydroxy-3-oxopiperazine-1-carboxamido)acetamido)-2-hydroxy-7-(hydroxymethyl)-3,4-dihydro-2H-benzo[el][1,2]oxaborinine-8-carboxylic acid]	B (B represents a potency between 30 μM and 500 μM inclusive)	> 64	> 64	> 64	> 64	> 64	> 64
CCN1CCN(C(=O)NC(C(=O)N[C@H]2Cc3ccc(OCCN)c(C(=O)O)c3OB2O)c2ccccc2)C(=O)C1=O (stereo partly drawn) [Example 60, (3R)-7-(2-aminoethoxy)-3-(2-(4-ethyl-2,3-dioxopiperazine-1-carboxamido)-2-phenylacetamido)-2-hydroxy-3,4-dihydro-2H-benzo[e][1,2]oxaborinine-8-carboxylic acid]	C (C represents a potency between 10 and 30 μM)	> 64	> 64	> 64	> 64	> 64	16 to 32 (≈ 28.2 to 56.4 µM)
CCN1CCN(C(=O)NC(C(=O)N[C@H]2Cc3cccc(C(=O)O)c3OB2O)c2cccc(O)c2)C(=O)C1=O (stereo partly drawn) [Example 68, (3R)-3-(2-(4-ethyl-2,3-dioxopiperazine-1-carboxamido)-2-(3-hydroxyphenyl)acetamido)-2-hydroxy-3,4-dihydro-2H-benzo[e][1,2]oxaborinine-8-carboxylic acid]	D (D represents a potency <10 μM)	16 to 32 (≈ 30.5 to 61 µM)	4 to 8 (≈ 7.63 to 15.3 µM)	16 to 32 (≈ 30.5 to 61 µM)	16 to 32 (≈ 30.5 to 61 µM)	4 to 8 (≈ 7.63 to 15.3 µM)	0.25 to 0.5 (≈ 0.477 to 0.954 µM)
CCN1CCN(C(=O)NC(C(=O)N[C@H]2Cc3cccc(C(=O)O)c3OB2O)c2ccc(O)cc2O)C(=O)C1=O (stereo partly drawn) [Example 69, (3R)-3-(2-(2,4-dihydroxyphenyl)-2-(4-ethyl-2,3-dioxopiperazine-1-carboxamido)acetamido)-2-hydroxy-3,4-dihydro-2H-benzo[e][1,2]oxaborinine-8-carboxylic acid]	C (C represents a potency between 10 and 30 μM)	16 to 32 (≈ 29.6 to 59.2 µM)	4 to 8 (≈ 7.4 to 14.8 µM)	> 64	> 64	4 to 8 (≈ 7.4 to 14.8 µM)	0.25 to 0.5 (≈ 0.463 to 0.925 µM)
CCN1CCN(C(=O)NC(C(=O)N[C@H]2Cc3cccc(C(=O)O)c3OB2O)c2ccc(O)cc2OC)C(=O)C1=O (stereo partly drawn) [Example 70, (3R)-3-(2-(4-ethyl-2,3-dioxopiperazine-1-carboxamido)-2-(4-hydroxy-2-methoxyphenyl)acetamido)-2-hydroxy-3,4-dihydro-2H-benzo[e][1,2]oxaborinine-8-carboxylic acid]	D (D represents a potency <10 μM)	> 64	16 to 32 (≈ 28.9 to 57.7 µM)	> 64	> 64	16 to 32 (≈ 28.9 to 57.7 µM)	1 to 2 (≈ 1.8 to 3.61 µM)
O=C(O)c1ccc(C(NC(=O)c2c(F)cc(O)c(O)c2Cl)C(=O)N[C@H]2Cc3ccc(F)c(C(=O)O)c3OB2O)cc1F (stereo partly drawn) [Example 71, (3R)-3-(2-(4-carboxy-3-fluorophenyl)-2-(2-chloro-6-fluoro-3,4-dihydroxybenzamido)acetamido)-7-fluoro-2-hydroxy-3,4-dihydro-2H-benzo[e][1,2]oxaborinine-8-carboxylic acid]	D (D represents a potency <10 μM)	> 64	> 64	> 64	> 64	> 64	> 64
